Measured values: ChEMBL document CHEMBL5576150, “Synthesis and Biological Evaluation of Pyrazole-Pyrimidones as a New Class of Correctors of the Cystic Fibrosis Transmembrane Conductance Regulator (CFTR)” (J Med Chem, 2024)
pEC50: −log10 of the molar value. The source made the active and inactive calls. The rule behind the calls is not given here.

Assays:
[1] = test system: Cystic fibrosis transmembrane conductance regulator (Homo sapiens), P13569 [F508del]; assay: Corrector activity at 3xHA-tagged full-length human CFTR F508del mutant expressed in human CFBE41o- cells assessed as restoration of plasma membrane density of channel at 10 uM incubated for 24 hrs in presence of VX-809/N-(5-(4-fluorobenzyl)thiazol-2-yl)-2,5-dimethylfuran-3-carboxamide by ELISA relative to wild-type CFTR level; format: cell membranes; conditions: filed as activator
[2] = test system: Cystic fibrosis transmembrane conductance regulator (Homo sapiens), P13569 [F508del]; assay: (§1) Corrector activity at 3xHA-tagged full-length human CFTR F508del mutant expressed in human CFBE41o- cells assessed as restoration of plasma membrane density of channel at 10 uM incubated for 24 hrs in presence of VX-809/1-(4-chlorophenyl)-N-(1-(4-methyl-6-oxo-1,6-dihydropyrimidin-2-yl)-3-(thiophen-2-yl)-1H-pyrazol-5-yl)cyclopentane-1-carboxamide by immunoblot analysis relative to wild-type CFTR level; format: cell membranes; conditions: filed as activator
[3] = test system: Cystic fibrosis transmembrane conductance regulator (Homo sapiens), P13569 [F508del]; assay: as §1, with “densitometry” for “immunoblot analysis”; format: cell membranes; conditions: filed as activator
[4] = test system: Cystic fibrosis transmembrane conductance regulator (Homo sapiens), P13569 [F508del]; assay: Corrector activity at 3xHA-tagged full-length human CFTR F508del mutant expressed in human CFBE41o- cells assessed as restoration of plasma membrane density of channel at 10 uM incubated for 24 hrs in presence of VX-809/1-(4-chlorophenyl)-N-(1-(4-methyl-6-oxo-1,6-dihydropyrimidin-2-yl)-3-(thiophen-2-yl)-1H-pyrazol-5-yl)cyclopentane-1-carboxamide by ELISA relative to wild-type CFTR level; format: cell membranes; conditions: filed as activator
[5] = test system: Cystic fibrosis transmembrane conductance regulator (Homo sapiens), P13569 [F508del]; assay: Corrector activity at 3xHA-tagged full-length human CFTR F508del mutant expressed in human CFBE41o- cells assessed as restoration of channel function in presence of VX-809/1-(4-chlorophenyl)-N-(1-(4-methyl-6-oxo-1,6-dihydropyrimidin-2-yl)-3-(thiophen-2-yl)-1H-pyrazol-5-yl)cyclopentane-1-carboxamide relative to wild-type CFTR activity; format: cell-based; conditions: filed as activator
[6] = test system: Cystic fibrosis transmembrane conductance regulator (Homo sapiens), P13569 [F508del]; assay: (§2) Corrector activity at 3xHA-tagged full-length human CFTR F508del mutant expressed in human CFBE41o- cells assessed as restoration of plasma membrane density of channel incubated for 24 hrs in presence of VX-809/N-(5-(4-fluorobenzyl)thiazol-2-yl)-2,5-dimethylfuran-3-carboxamide by ELISA; format: cell membranes; conditions: filed as activator, dose 10.0 µM
[7] = target: Cystic fibrosis transmembrane conductance regulator (Homo sapiens, UniProt P13569, F508DEL); assay: as §2; format: cell membranes
[8] = test system: Cystic fibrosis transmembrane conductance regulator (Homo sapiens), P13569 [F508del]; assay: Corrector activity at 3xHA-tagged full-length human CFTR F508del mutant expressed in human CFBE41o- cells assessed as functional rescue of channel by measuring anion transport measured after 24 hrs in presence of VX-809/N-(5-(4-fluorobenzyl)thiazol-2-yl)-2,5-dimethylfuran-3-carboxamide by halide-sensitive YFP quenching assay relative to combination of VX-809/N-(5-(4-fluorobenzyl)thiazol-2-yl)-2,5-dimethylfuran-3-carboxamide; format: cell-based; conditions: filed as activator
[9] = test system: Cystic fibrosis transmembrane conductance regulator (Homo sapiens), P13569 [F508del]; assay: Corrector activity at 3xHA-tagged full-length human CFTR F508del mutant expressed in human CFBE41o- cells assessed as fractional plasma membrane density at 10 uM in presence of VX-809/N-(5-(4-fluorobenzyl)thiazol-2-yl)-2,5-dimethylfuran-3-carboxamide relative to forskoli-stimulated wild-type CFTR expressed in human CFBE41o- cells; format: cell membranes; conditions: filed as activator
[10] = test system: Cystic fibrosis transmembrane conductance regulator (Homo sapiens), P13569 [F508del]; assay: Corrector activity at 3xHA-tagged full-length human CFTR F508del mutant expressed in human CFBE41o- cells assessed as […] forskolin/VX-770-induced transepithelial short-circuit current at 10 uM in presence of VX-809/N-(5-(4-fluorobenzyl)thiazol-2-yl)-2,5-dimethylfuran-3-carboxamide by electrophysiological method relative to control; format: cell-based; parameters: scale not given: the % may be the effect or the level left; conditions: filed as activator
[11] = test system: Cystic fibrosis transmembrane conductance regulator (Homo sapiens), P13569 [S13F]; assay: Corrector activity at 3xHA-tagged full-length human CFTR S13F mutant expressed in human CFBE41o- cells assessed as restoration of plasma membrane density of channel in presence of VX-809/N-(5-(4-fluorobenzyl)thiazol-2-yl)-2,5-dimethylfuran-3-carboxamide by ELISA; format: cell membranes; conditions: filed as activator
[12] = test system: Cystic fibrosis transmembrane conductance regulator (Homo sapiens), P13569 [S492F]; assay: Corrector activity at 3xHA-tagged full-length human CFTR S492F mutant expressed in human CFBE41o- cells assessed as restoration of plasma membrane density of channel in presence of VX-809/N-(5-(4-fluorobenzyl)thiazol-2-yl)-2,5-dimethylfuran-3-carboxamide by ELISA; format: cell membranes; conditions: filed as activator
[13] = test system: Cystic fibrosis transmembrane conductance regulator (Homo sapiens), P13569 [M1101K]; assay: Corrector activity at 3xHA-tagged full-length human CFTR M1101K mutant expressed in human CFBE41o- cells assessed as restoration of plasma membrane density of channel in presence of VX-809/N-(5-(4-fluorobenzyl)thiazol-2-yl)-2,5-dimethylfuran-3-carboxamide by ELISA relative to wild-type CFTR level; format: cell membranes; conditions: filed as activator
[14] = test system: Cystic fibrosis transmembrane conductance regulator (Homo sapiens), P13569 [N1303K]; assay: Corrector activity at 3xHA-tagged full-length human CFTR N1303K mutant expressed in human CFBE41o- cells assessed as restoration of plasma membrane density of channel in presence of VX-809/N-(5-(4-fluorobenzyl)thiazol-2-yl)-2,5-dimethylfuran-3-carboxamide by ELISA relative to wild-type CFTR level; format: cell membranes; conditions: filed as activator
[15] = test system: Cystic fibrosis transmembrane conductance regulator (Homo sapiens), P13569 [R560T]; assay: Corrector activity at 3xHA-tagged full-length human CFTR R560T mutant expressed in human CFBE41o- cells assessed as restoration of plasma membrane density of channel in presence of VX-809/N-(5-(4-fluorobenzyl)thiazol-2-yl)-2,5-dimethylfuran-3-carboxamide by ELISA; format: cell membranes
[16] = test system: Cystic fibrosis transmembrane conductance regulator (Homo sapiens), P13569 [S13F]; assay: Corrector activity at 3xHA-tagged full-length human CFTR S13F mutant expressed in human CFBE41o- cells assessed as restoration of plasma membrane density of channel in presence of N-(5-(4-fluorobenzyl)thiazol-2-yl)-2,5-dimethylfuran-3-carboxamide incubated for 24 hrs by ELISA; format: cell membranes; conditions: filed as activator
[17] = test system: Cystic fibrosis transmembrane conductance regulator (Homo sapiens), P13569 [S13F]; assay: Corrector activity at 3xHA-tagged full-length human CFTR S13F mutant expressed in human CFBE41o- cells assessed as restoration of plasma membrane density of channel in presence of VX-809 incubated for 24 hrs by ELISA; format: cell membranes; conditions: filed as activator
[18] = test system: Cystic fibrosis transmembrane conductance regulator (Homo sapiens), P13569 [S13F]; assay: Corrector activity at 3xHA-tagged full-length human CFTR S13F mutant expressed in human CFBE41o- cells assessed as restoration of plasma membrane density of channel in presence of VX-661 incubated for 24 hrs by ELISA; format: cell membranes; conditions: filed as activator
[19] = test system: Cystic fibrosis transmembrane conductance regulator (Homo sapiens), P13569 [S492F]; assay: Corrector activity at 3xHA-tagged full-length human CFTR S492F mutant expressed in human CFBE41o- cells assessed as restoration of plasma membrane density of channel in presence of N-(5-(4-fluorobenzyl)thiazol-2-yl)-2,5-dimethylfuran-3-carboxamide incubated for 24 hrs by ELISA; format: cell membranes; conditions: filed as activator
[20] = test system: Cystic fibrosis transmembrane conductance regulator (Homo sapiens), P13569 [S492F]; assay: Corrector activity at 3xHA-tagged full-length human CFTR S492F mutant expressed in human CFBE41o- cells assessed as restoration of plasma membrane density of channel in presence of VX-809 incubated for 24 hrs by ELISA; format: cell membranes; conditions: filed as activator
[21] = test system: Cystic fibrosis transmembrane conductance regulator (Homo sapiens), P13569 [S492F]; assay: Corrector activity at 3xHA-tagged full-length human CFTR S492F mutant expressed in human CFBE41o- cells assessed as restoration of plasma membrane density of channel in presence of VX-661 incubated for 24 hrs by ELISA; format: cell membranes; conditions: filed as activator
[22] = test system: Cystic fibrosis transmembrane conductance regulator (Homo sapiens), P13569 [F508del]; assay: Corrector activity at 3xHA-tagged full-length human CFTR F508del mutant expressed in human CFBE41o- cells assessed as restoration of plasma membrane density of channel in presence of N-(5-(4-fluorobenzyl)thiazol-2-yl)-2,5-dimethylfuran-3-carboxamide incubated for 24 hrs by ELISA; format: cell membranes; conditions: filed as activator
[23] = test system: Cystic fibrosis transmembrane conductance regulator (Homo sapiens), P13569 [F508del]; assay: Corrector activity at 3xHA-tagged full-length human CFTR F508del mutant expressed in human CFBE41o- cells assessed as restoration of plasma membrane density of channel incubated for 24 hrs in presence of VX-809 by ELISA; format: cell membranes; conditions: filed as activator
[24] = test system: Cystic fibrosis transmembrane conductance regulator (Homo sapiens), P13569 [F508del]; assay: Corrector activity at 3xHA-tagged full-length human CFTR F508del mutant expressed in human CFBE41o- cells assessed as restoration of plasma membrane density of channel incubated for 24 hrs in presence of VX-661 by ELISA; format: cell membranes; conditions: filed as activator
[25] = test system: Cystic fibrosis transmembrane conductance regulator (Homo sapiens), P13569 [S13F]; assay: Corrector activity at 3xHA-tagged full-length human CFTR S13F mutant expressed in human CFBE41o- cells assessed as restoration of plasma membrane density of channel incubated for 24 hrs in presence of VX-445 by ELISA; format: cell membranes
[26] = test system: Cystic fibrosis transmembrane conductance regulator (Homo sapiens), P13569 [S492F]; assay: Corrector activity at 3xHA-tagged full-length human CFTR S492F mutant expressed in human CFBE41o- cells assessed as restoration of plasma membrane density of channel incubated for 24 hrs in presence of VX-445 by ELISA; format: cell membranes
[27] = test system: Cystic fibrosis transmembrane conductance regulator (Homo sapiens), P13569 [F508del]; assay: Corrector activity at 3xHA-tagged full-length human CFTR F508del mutant expressed in human CFBE41o- cells assessed as restoration of plasma membrane density of channel incubated for 24 hrs in presence of VX-445 by ELISA; format: cell membranes
[28] = test system: Cystic fibrosis transmembrane conductance regulator (Homo sapiens), P13569 [S13F]; assay: Corrector activity at 3xHA-tagged full-length human CFTR S13F mutant expressed in human CFBE41o- cells assessed as restoration of plasma membrane density of channel at 10 uM incubated for 24 hrs in presence of VX-445 by ELISA; format: cell membranes

Chain of Cystic fibrosis transmembrane conductance regulator (Homo sapiens), P13569 [S492F] (P13569 whole entry S492F): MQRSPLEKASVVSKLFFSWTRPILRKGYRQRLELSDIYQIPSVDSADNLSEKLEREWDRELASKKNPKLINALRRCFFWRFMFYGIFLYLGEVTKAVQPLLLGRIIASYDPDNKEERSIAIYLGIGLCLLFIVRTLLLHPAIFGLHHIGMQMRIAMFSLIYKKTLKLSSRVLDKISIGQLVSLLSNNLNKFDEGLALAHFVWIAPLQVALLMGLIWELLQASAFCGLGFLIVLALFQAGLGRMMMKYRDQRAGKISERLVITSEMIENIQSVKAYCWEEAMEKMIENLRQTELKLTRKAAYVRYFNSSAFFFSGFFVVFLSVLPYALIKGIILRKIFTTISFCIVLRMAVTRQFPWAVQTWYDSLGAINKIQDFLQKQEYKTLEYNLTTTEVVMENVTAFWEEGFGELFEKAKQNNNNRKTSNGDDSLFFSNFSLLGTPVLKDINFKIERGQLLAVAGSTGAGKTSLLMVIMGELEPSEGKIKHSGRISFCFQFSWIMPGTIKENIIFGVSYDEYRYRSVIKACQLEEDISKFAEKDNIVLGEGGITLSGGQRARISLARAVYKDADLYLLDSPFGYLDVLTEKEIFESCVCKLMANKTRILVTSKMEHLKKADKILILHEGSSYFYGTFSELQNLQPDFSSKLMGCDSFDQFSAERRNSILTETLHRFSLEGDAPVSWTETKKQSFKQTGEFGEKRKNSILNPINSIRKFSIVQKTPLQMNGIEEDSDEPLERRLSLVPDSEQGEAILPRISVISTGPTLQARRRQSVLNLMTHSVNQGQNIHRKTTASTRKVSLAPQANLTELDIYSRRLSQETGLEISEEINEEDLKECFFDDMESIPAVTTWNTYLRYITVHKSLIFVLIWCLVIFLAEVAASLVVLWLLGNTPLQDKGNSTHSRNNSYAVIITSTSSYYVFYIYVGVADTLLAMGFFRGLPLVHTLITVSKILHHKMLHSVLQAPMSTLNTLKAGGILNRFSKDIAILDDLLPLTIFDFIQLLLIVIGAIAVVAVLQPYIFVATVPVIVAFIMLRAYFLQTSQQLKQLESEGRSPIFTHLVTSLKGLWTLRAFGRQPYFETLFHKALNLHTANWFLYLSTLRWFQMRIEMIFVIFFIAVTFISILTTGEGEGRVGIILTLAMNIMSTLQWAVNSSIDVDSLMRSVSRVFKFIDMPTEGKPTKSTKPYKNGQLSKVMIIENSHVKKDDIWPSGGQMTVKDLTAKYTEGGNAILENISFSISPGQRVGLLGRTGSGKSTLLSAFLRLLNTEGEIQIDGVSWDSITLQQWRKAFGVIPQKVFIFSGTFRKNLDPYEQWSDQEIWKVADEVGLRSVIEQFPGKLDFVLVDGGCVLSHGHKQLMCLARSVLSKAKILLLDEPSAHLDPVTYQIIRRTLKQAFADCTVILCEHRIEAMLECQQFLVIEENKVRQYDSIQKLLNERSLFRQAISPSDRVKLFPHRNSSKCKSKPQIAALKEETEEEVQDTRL
Chain of Cystic fibrosis transmembrane conductance regulator (Homo sapiens), P13569 [F508del] (P13569 as listed by the source): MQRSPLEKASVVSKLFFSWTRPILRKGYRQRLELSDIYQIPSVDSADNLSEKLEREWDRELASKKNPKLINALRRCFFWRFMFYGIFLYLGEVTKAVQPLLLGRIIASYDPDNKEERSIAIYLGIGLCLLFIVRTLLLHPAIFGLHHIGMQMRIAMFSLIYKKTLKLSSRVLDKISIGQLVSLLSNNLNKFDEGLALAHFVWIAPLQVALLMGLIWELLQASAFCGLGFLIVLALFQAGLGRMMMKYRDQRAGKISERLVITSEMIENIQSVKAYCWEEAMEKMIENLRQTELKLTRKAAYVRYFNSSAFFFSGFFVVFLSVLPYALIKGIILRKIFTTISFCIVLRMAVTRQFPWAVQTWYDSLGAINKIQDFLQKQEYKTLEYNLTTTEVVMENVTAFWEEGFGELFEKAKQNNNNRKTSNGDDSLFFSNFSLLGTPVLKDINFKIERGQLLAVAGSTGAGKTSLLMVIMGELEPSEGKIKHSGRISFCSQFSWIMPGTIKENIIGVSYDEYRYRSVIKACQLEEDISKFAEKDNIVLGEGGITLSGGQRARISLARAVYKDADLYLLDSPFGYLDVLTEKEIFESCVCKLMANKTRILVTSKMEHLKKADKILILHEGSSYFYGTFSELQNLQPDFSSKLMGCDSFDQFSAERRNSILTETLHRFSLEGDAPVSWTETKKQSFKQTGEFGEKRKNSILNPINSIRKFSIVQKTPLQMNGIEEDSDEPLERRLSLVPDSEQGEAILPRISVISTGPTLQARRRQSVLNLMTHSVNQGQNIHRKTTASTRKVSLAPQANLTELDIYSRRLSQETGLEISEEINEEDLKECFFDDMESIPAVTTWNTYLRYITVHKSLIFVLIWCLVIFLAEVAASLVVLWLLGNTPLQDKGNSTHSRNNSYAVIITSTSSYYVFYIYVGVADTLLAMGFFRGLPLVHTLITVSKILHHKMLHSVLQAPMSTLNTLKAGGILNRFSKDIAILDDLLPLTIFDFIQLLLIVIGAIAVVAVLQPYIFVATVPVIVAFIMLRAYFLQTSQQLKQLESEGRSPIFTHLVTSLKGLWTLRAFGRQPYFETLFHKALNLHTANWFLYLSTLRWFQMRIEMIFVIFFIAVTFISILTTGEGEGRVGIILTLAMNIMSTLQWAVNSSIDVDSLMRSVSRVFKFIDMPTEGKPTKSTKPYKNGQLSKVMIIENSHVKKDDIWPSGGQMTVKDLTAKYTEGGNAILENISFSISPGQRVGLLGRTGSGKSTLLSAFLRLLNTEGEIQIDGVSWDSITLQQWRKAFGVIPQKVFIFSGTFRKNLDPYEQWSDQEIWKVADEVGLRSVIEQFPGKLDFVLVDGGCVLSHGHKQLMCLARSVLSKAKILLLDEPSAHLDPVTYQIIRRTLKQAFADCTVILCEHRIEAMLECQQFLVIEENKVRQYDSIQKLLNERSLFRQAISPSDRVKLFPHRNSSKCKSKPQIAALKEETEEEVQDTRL
Chain of Cystic fibrosis transmembrane conductance regulator (Homo sapiens), P13569 [S13F] (P13569 whole entry S13F): as the sequence (P13569 whole entry S492F) above, with S13F, F492S counted along it
Chain of Cystic fibrosis transmembrane conductance regulator (P13569 as listed by the source): as the sequence (P13569 as listed by the source) above
Chain of Cystic fibrosis transmembrane conductance regulator (Homo sapiens), P13569 [N1303K] (P13569 whole entry N1303K): as the sequence (P13569 whole entry S492F) above, with F492S, N1303K counted along it
Chain of Cystic fibrosis transmembrane conductance regulator (Homo sapiens), P13569 [M1101K] (P13569 whole entry M1101K): as the sequence (P13569 whole entry S492F) above, with F492S, M1101K counted along it
Chain of Cystic fibrosis transmembrane conductance regulator (Homo sapiens), P13569 [R560T] (P13569 whole entry R560T): as the sequence (P13569 whole entry S492F) above, with F492S, R560T counted along it

Compound: Cc1nc(-n2nc(-c3ccccc3)cc2NC(=O)C2(c3ccc(Cl)cc3)CCCC2)[nH]c(=O)c1C
- Activity [1]: 102%

Compound: Cc1cc(C(=O)Nc2ncc(Cc3ccc(F)cc3)s2)c(C)o1
- Activity [2]: 100%
- Activity [3]: 100%
- Activity [4]: 100%
- Activity [5]: 50%

Compound: Cc1nc(-n2nc(-c3cccs3)cc2NC(=O)C2(c3ccc(Cl)cc3)CCCC2)[nH]c(=O)c1C
- Activity [1]: 95%
- Activity [6]: Dose-Dependent Effect
- pEC50 [7]: 5.75
- Activity [8]: 250%
- Activity [9]: 68%
- Activity [10]: -25%
- Activity [11]: Active
- Activity [12]: Active
- Activity [13]: 15%
- Activity [14]: 15%
- Activity [15]: inactive
- Activity [16]: Active
- Activity [17]: Active
- Activity [18]: Active
- Activity [19]: Active
- Activity [20]: Active
- Activity [21]: Active
- Activity [22]: Active
- Activity [23]: Active
- Activity [24]: Active
- Activity [25]: inactive
- Activity [26]: inactive
- Activity [27]: inactive
- Activity [28]: inactive
